Measurements taken from ChEMBL document CHEMBL1136553, “Synthesis and biological evaluation of novel 1 beta-methylcarbapenems with isothiazoloethenyl side chains” (Bioorg Med Chem Lett, 2003).
≈ marks a conversion by molar mass, not a printed value.

Tests used:
Streptococcus pyogenes = test: Antibacterial activity against Streptococcus pyogenes 308A; assay type: functional
Pseudomonas aeruginosa [1] = test: Antibacterial activity against Pseudomonas aeruginosa 1771M; assay type: functional
Pseudomonas aeruginosa [2] = test: Antibacterial activity against Pseudomonas aeruginosa 1592E; assay type: functional
Enterobacter cloacae = test: Antibacterial activity against Enterobacter cloacae 1321E; assay type: functional
[3] = Stability to porcine renal DHP-I; assay type: ADME, Sus scrofa; details: pig
Escherichia coli [4] = test: Antibacterial activity against Escherichia coli 078; assay type: functional
Staphylococcus aureus [5] = test: Antibacterial activity against Staphylococcus aureus 503; assay type: functional
Pseudomonas aeruginosa [6] = test: Antibacterial activity against Pseudomonas aeruginosa 9027; assay type: functional
Klebsiella aerogenes = test: Antibacterial activity against Klebsiella aerogenes 1522E; assay type: functional
Staphylococcus aureus [7] = test: Antibacterial activity against Staphylococcus aureus SG 511; assay type: functional
Salmonella typhimurium = test: Antibacterial activity against Salmonella Typhimurium; assay type: functional, Salmonella enterica subsp. enterica serovar Typhimurium; details: Salmonella enterica
Escherichia coli [8] = test: Antibacterial activity against Escherichia coli 1507E; assay type: functional
Staphylococcus aureus [9] = test: Antibacterial activity against Staphylococcus aureus 285; assay type: functional
Mus musculus [10] = test: In vivo therapeutic efficacy in systemic infections caused by Staphylococcus aureus Y-80-1953 in mice, at a single subcutaneous administration; assay type: functional; details: sc, read-out: PD50
Mus musculus [11] = test: In vivo therapeutic efficacy in systemic infections caused by Escherichia coli 078 in mice, at a single subcutaneous administration; assay type: functional; details: sc, read-out: PD50
Mus musculus [12] = test: In vivo therapeutic efficacy in systemic infections caused by Streptococcus pyogenes 77A in mice, at a single subcutaneous administration; assay type: functional; details: sc, read-out: PD50
Mus musculus [13] = test: In vivo therapeutic efficacy in systemic infections caused by Pseudomonas aeruginosa 1771M in mice, at a single subcutaneous administration; assay type: functional; details: sc, read-out: PD50

Row | SMILES | MIC (Streptococcus pyogenes) [µg/mL] | MIC (Pseudomonas aeruginosa [1]) [µg/mL] | MIC (Pseudomonas aeruginosa [2]) [µg/mL] | MIC (Enterobacter cloacae) [µg/mL] | Relative t1/2 [3] | MIC (Escherichia coli [4]) [µg/mL] | MIC (Staphylococcus aureus [5]) [µg/mL] | MIC (Pseudomonas aeruginosa [6]) [µg/mL] | MIC (Klebsiella aerogenes) [µg/mL] | MIC (Staphylococcus aureus [7]) [µg/mL] | MIC (Salmonella typhimurium) [µg/mL] | MIC (Escherichia coli [8]) [µg/mL] | MIC (Staphylococcus aureus [9]) [µg/mL] | ED50 (Mus musculus [10]) [mg/kg] | ED50 (Mus musculus [11]) [mg/kg] | ED50 (Mus musculus [12]) [mg/kg] | ED50 (Mus musculus [13]) [mg/kg]
1 | C[C@@H](O)[C@H]1C(=O)N2C(C(=O)O)=C(S[C@@H]3CN[C@H](/C=C/c4ccno4)C3)[C@H](C)[C@H]12 | 0.004 (≈ 0.00986 µM) | 0.098 (≈ 0.242 µM) | 0.195 (≈ 0.481 µM) | 0.025 (≈ 0.0617 µM) | 1.95 | 0.025 (≈ 0.0617 µM) | 0.013 (≈ 0.0321 µM) | 0.195 (≈ 0.481 µM) | 0.049 (≈ 0.121 µM) | 0.025 (≈ 0.0617 µM) | 0.049 (≈ 0.121 µM) | 0.025 (≈ 0.0617 µM) | 0.049 (≈ 0.121 µM) |  |  |  | 
2 | C[C@@H](O)[C@H]1C(=O)N2C(C(=O)O)=C(S[C@@H]3CN[C@H](/C=C/c4ccsn4)C3)[C@H](C)[C@H]12 | 0.007 (≈ 0.0166 µM) | 0.391 (≈ 0.928 µM) | 1.56 (≈ 3.71 µM) | 0.025 (≈ 0.0593 µM) | 1.42 | 0.049 (≈ 0.116 µM) | 0.013 (≈ 0.0308 µM) | 1.56 (≈ 3.71 µM) | 0.098 (≈ 0.232 µM) | 0.025 (≈ 0.0593 µM) | 0.049 (≈ 0.116 µM) | 0.049 (≈ 0.116 µM) | 0.025 (≈ 0.0593 µM) |  |  |  | 
3 | C[C@@H](O)[C@H]1C(=O)N2C(C(=O)O)=C(SCCNC=N)C[C@H]12.O [IMIPENEM] | 0.007 | 0.195 | 1.56 | 0.195 | 0.19 | 0.098 | 0.013 | 0.781 | 0.391 | 0.025 | 0.781 | 0.195 | 0.025 |  |  |  | 
4 | C[C@@H](O)[C@H]1C(=O)N2C(C(=O)O)=C(S[C@@H]3CN[C@H](/C=C/c4ccns4)C3)[C@H](C)[C@H]12 | 0.004 (≈ 0.00949 µM) | 0.195 (≈ 0.463 µM) | 0.391 (≈ 0.928 µM) | 0.049 (≈ 0.116 µM) | 3.36 | 0.025 (≈ 0.0593 µM) | 0.013 (≈ 0.0308 µM) | 0.391 (≈ 0.928 µM) | 0.049 (≈ 0.116 µM) | 0.013 (≈ 0.0308 µM) | 0.049 (≈ 0.116 µM) | 0.025 (≈ 0.0593 µM) | 0.025 (≈ 0.0593 µM) | 1.27 | 0.32 | 0.32 | 6.17
5 | C[C@@H](O)[C@H]1C(=O)N2C(C(=O)O)=C(S[C@@H]3CN[C@H](C(=O)N(C)C)C3)[C@H](C)[C@H]12 [MEROPENEM] | 0.013 (≈ 0.0339 µM) | 0.049 (≈ 0.128 µM) | 0.195 (≈ 0.509 µM) | 0.025 (≈ 0.0652 µM) | 1 | 0.025 (≈ 0.0652 µM) | 0.098 (≈ 0.256 µM) | 0.195 (≈ 0.509 µM) | 0.049 (≈ 0.128 µM) | 0.195 (≈ 0.509 µM) | 0.049 (≈ 0.128 µM) | 0.025 (≈ 0.0652 µM) | 0.195 (≈ 0.509 µM) | 4.49 | 1.11 | 4.72 | 5.43
